≈ marks a conversion by molar mass, not a printed value.
System: KB
Assay: Cytotoxicity against human KB cells
Type: functional
Conditions: read-out: ED50 (the source's name)

CO[C@H]1C[C@H](O[C@H]2CC[C@@]3(CO)[C@H](CC[C@@H]4[C@@H]3CC[C@]3(C)[C@@H](C5=CC(=O)OC5)CC[C@]43O)C2)O[C@H](C)[C@H]1O [MAQUIROSIDE A]
EC50: 0.013 µg/mL (≈ 0.0243 µM)

From ChEMBL document CHEMBL1150711, “Maquiroside A, a new cytotoxic cardiac glycoside from Maquira calophylla” (1987)
